Measurements as given in article PMC12386561, “Broad-Spectrum Antimicrobial Potential of the γ-Core Motif Peptides of Filipendula ulmaria for Practical Applications in Agriculture and Medicine” (International Journal of Molecular Sciences, 2025).
Residues, ends and D or L forms follow the SMILES beside them.

Experiments:
[1] = system: Pectobacterium carotovorum subsp. carotovorum VKM B-1247; assay: Antimicrobial activity assay against bacteria, growth inhibition in microtiter plates; format: cell-based; conditions: modified YPD-P medium, peptide 0.5–300 µM, 30 °C, 24 h, absorbance 594 nm, triplicate, mean ± SD
Text: (§1) The IC50 values are presented as mean ± standard deviations.

[2] = system: Cryptococcus neoformans VKM Y-2755; conditions: read-out: IC50 against C. neoformans; YPD-P medium, peptide 0.5–300 µM, 30 °C, 24 h, absorbance 594 nm, triplicate, mean ± SD
[3] = system: Botrytis cinerea VKM F-4549; format: cell-based; conditions: spores in half-strength potato dextrose broth, peptide 5–300 µM, 48 h, absorbance 595 nm, triplicate, mean ± SD; read-out: IC50 against B. cinerea
Protocol: (§2) The inhibitory activity of peptides on spore germination and growth of fungi was tested against nine fungal strains from the VKM: Fusarium culmorum VKM F-2303, F. oxysporum VKM F-137, F. solani VKM F-142, F. verticillioides VKM F-670, Aspergillus unguis VKM F-1754, Bipolaris sorokiniana VKM F-4006, Botrytis cinerea VKM F-4549, Rhizoctonia solani VKM F-895, and Penicillium gladioli VKM F-2088. The fungi were cultivated on potato dextrose agar at 25 °C for 7–8 days, while B. sorokiniana and B. cinerea were grown for 10–12 days. Spores were obtained by washing from the surface of the mycelia with sterile distilled water and filtered through a sterile filter. The filtrate was centrifuged at 6000 rpm for 15 min. The precipitate was washed three times with sterile distilled water and centrifuged at 10,000 rpm for 2 min. A total of 1 mL of sterile aqueous 20% glycerol solution was added to the spores, and spores were stored at −20 °C.
(§3) The antifungal effect of peptides was determined in microtiter plates by measuring the absorbance of the spore suspension in the presence of the peptide relative to the control. In the wells of a plate, 90 µL of spore suspension in half-strength potato dextrose broth at a concentration of 2000–3000 spores in 100 µL was mixed with 10 µL of aqueous solutions of peptides to obtain final concentrations of 5–300 µM. Each experiment was carried out in triplicate. The concentration of spores in the suspension was determined in a Goryaev chamber. The absorbance was recorded at 595 nm on a FilterMax F5 Multi-Mode Microplate Reader (Molecular Devices, San Jose, CA, USA) after 48 h of incubation. The antimicrobial activity was expressed in IC50 values.

[4] = system: Penicillium gladioli VKM F-2088; format: cell-based; conditions: spores in half-strength potato dextrose broth, peptide 5–300 µM, 48 h, absorbance 595 nm, triplicate, mean ± SD; read-out: IC50 against P. gladioli
Protocol: as §2, §3

[5] = system: Aspergillus unguis VKM F-1754; format: cell-based; conditions: spores in half-strength potato dextrose broth, peptide 5–300 µM, 48 h, absorbance 595 nm, triplicate, mean ± SD; read-out: IC50 against A. unguis
Protocol: as §2, §3

F. solani VKM F-142 = format: cell-based, Fusarium solani; conditions: spores in half-strength potato dextrose broth, peptide 5–300 µM, 48 h, absorbance 595 nm, triplicate, mean ± SD; for IC50: read-out: IC50 against F. solani
Protocol: as §2, §3

[6] = system: Candida albicans VKM Y-2994; format: cell-based; conditions: YPD-P medium, peptide 0.5–300 µM, 30 °C, 24 h, absorbance 594 nm, triplicate, mean ± SD; read-out: IC50 against C. albicans
Text: as §1

[7] = system: Pseudomonas savastanoi pv. savastanoi VKM B-1546; format: cell-based; conditions: medium without glucose, peptide 0.5–300 µM, 30 °C, 24 h, absorbance 594 nm, triplicate, mean ± SD; for IC50: read-out: IC50 against P. savastanoi
Text: as §1

[8] = system: Clavibacter michiganensis subsp. michiganensis VKM Ac-1403; assay: Antimicrobial activity assay against bacteria, growth inhibition in microtiter plates; format: cell-based; conditions: modified YPD-P medium, peptide 0.5–300 µM, 30 °C, 24 h, absorbance 594 nm, triplicate, mean ± SD
Text: as §1

F. oxysporum VKM F-137 = format: cell-based, Fusarium oxysporum; conditions: spores in half-strength potato dextrose broth, peptide 5–300 µM, 48 h, absorbance 595 nm, triplicate, mean ± SD; for IC50: read-out: IC50 against F. oxysporum
Protocol: as §2, §3

[9] = system: Fusarium culmorum VKM F-2303; assay: Antifungal activity assay, spore germination and growth; format: cell-based; conditions: spores in half-strength potato dextrose broth, peptide 5–300 µM, 48 h, absorbance 595 nm, triplicate, mean ± SD; for IC50: read-out: IC50 against F. culmorum
Protocol: as §2, §3

[10] = system: Bipolaris sorokiniana VKM F-4006; assay: as above; format: cell-based; conditions: spores in half-strength potato dextrose broth, peptide 5–300 µM, 48 h, absorbance 595 nm, triplicate, mean ± SD; read-out: IC50 against B. sorokiniana
Protocol: as §2, §3

C. tropicalis VKM Y-2771 = format: cell-based, Candida tropicalis; conditions: YPD-P medium, peptide 0.5–300 µM, 30 °C, 24 h, absorbance 594 nm, triplicate, mean ± SD; read-out: IC50 against C. tropicalis
Text: as §1

[11] = system: F. verticillioides VKM F-670; format: cell-based, Fusarium verticillioides; conditions: spores in half-strength potato dextrose broth, peptide 5–300 µM, 48 h, absorbance 595 nm, triplicate, mean ± SD; for IC50: read-out: IC50 against F. verticillioides
Protocol: as §2, §3

[12] = system: Rhizoctonia solani VKM F-895; assay: Antifungal activity assay, spore germination and growth; format: cell-based; conditions: spores in half-strength potato dextrose broth, peptide 5–300 µM, 48 h, absorbance 595 nm, triplicate, mean ± SD; read-out: IC50 against R. solani
Protocol: as §2, §3

`CC[C@H](C)[C@H](NC(=O)[C@H](Cc1c[nH]cn1)NC(=O)[C@H](CO)NC(=O)[C@H](CS)NC(=O)[C@H](CCCCN)NC(=O)CN)C(=O)N[C@@H](CC(C)C)C(=O)N[C@@H](CCCNC(=N)N)C(=O)N[C@@H](CCCNC(=N)N)C(=O)N[C@@H](CS)C(=O)N[C@@H](Cc1ccccc1)C(=O)N[C@@H](CS)C(=O)N[C@H](C(=O)N[C@H](C(=O)N[C@@H](Cc1c[nH]cn1)C(=O)N[C@@H](CS)C(=O)O)[C@@H](C)O)[C@@H](C)O` [FuD0] (H-GKCSHILRRCFCTTHC-OH; N-terminus and C-terminus assumed) gave an IC50 [1] of over 300 µM.

Molecule `CC[C@H](C)[C@H](NC(=O)[C@H](CS)NC(=O)[C@H](C)NC(=O)CN)C(=O)N[C@@H](C)C(=O)N[C@@H](CCCNC(=N)N)C(=O)N[C@@H](CS)C(=O)N[C@@H](CCCNC(=N)N)C(=O)N[C@@H](CC(C)C)C(=O)N[C@@H](CO)C(=O)N[C@@H](CO)C(=O)N[C@@H](CCCNC(=N)N)C(=O)N1CCC[C@H]1C(=O)N[C@@H](CC(N)=O)C(=O)N[C@@H](CC(C)C)C(=O)N[C@@H](CS)C(=O)N[C@@H](CCCCN)C(=O)N[C@@H](CCCNC(=N)N)C(=O)O` [γ48-67FuSN6] (H-GACIARCRLSSRPNLCKR-OH; N-terminus and C-terminus assumed) has an IC50 [2] of 5.5 ± 0.2 µM, an IC50 [3] of 154 ± 4.4 µM and an IC50 [4] of 93.8 ± 4.2 µM. For the same molecule, the IC50 [5] was 2.1 µM, the IC50 (F. solani VKM F-142) was 51.4 ± 0.9 µM and the IC50 [6] was over 300 µM. For the same molecule, the IC50 [7] was 97.2 ± 0.2 µM, the IC50 [1] was over 300 µM and the IC50 [8] was 34.7 ± 0.5 µM. The IC50 (F. oxysporum VKM F-137) was 15.8 ± 0.6 µM, the IC50 [9] was 19.3 ± 1.2 µM and the IC50 [10] was 46.2 ± 3.2 µM. It also gave an IC50 (C. tropicalis VKM Y-2771) of 1.7 ± 0.6 µM and an IC50 [11] of 38 ± 4.6 µM.

`CC(C)C[C@H](NC(=O)[C@H](CCCCN)NC(=O)[C@H](CS)NC(=O)[C@H](CCCNC(=N)N)NC(=O)CN)C(=O)N[C@@H](CO)C(=O)N[C@@H](CO)C(=O)N[C@@H](CCCNC(=N)N)C(=O)N1CCC[C@H]1C(=O)N[C@@H](CCCCN)C(=O)N[C@@H](CC(C)C)C(=O)N[C@@H](CS)C(=O)N[C@@H](CCCCN)C(=O)N[C@@H](CCCNC(=N)N)C(=O)O` [γ54-69FuSN5] (H-GRCKLSSRPKLCKR-OH; N-terminus and C-terminus assumed) showed an IC50 [3] of over 300 µM, an IC50 [1] of over 300 µM and an IC50 [12] of over 300 µM. For the same molecule, the IC50 [10] was over 300 µM.

`CC[C@H](C)[C@H](NC(=O)[C@H](Cc1c[nH]cn1)NC(=O)[C@H](CO)NC(=O)[C@H](CS)NC(=O)[C@H](CCCCN)NC(=O)CN)C(=O)N[C@@H](CC(C)C)C(=O)N[C@@H](CCCNC(=N)N)C(=O)N[C@@H](CCCNC(=N)N)C(=O)N[C@@H](CS)C(=O)N[C@@H](CCCNC(=N)N)C(=O)N[C@@H](CS)C(=O)N[C@@H](CO)C(=O)N[C@@H](CCCCN)C(=O)N[C@@H](CO)C(=O)N[C@@H](CS)C(=O)O` [γ59-74FuDEFL1-1] (H-GKCSHILRRCRCSKSC-OH; N-terminus and C-terminus assumed) gave an IC50 [1] of over 300 µM.

Work on `CC[C@H](C)[C@H](NC(=O)[C@H](Cc1c[nH]cn1)NC(=O)[C@H](CO)NC(=O)[C@H](CS)NC(=O)[C@H](CCCCN)NC(=O)CN)C(=O)N[C@@H](CC(C)C)C(=O)N[C@@H](CCCNC(=N)N)C(=O)N[C@@H](CCCNC(=N)N)C(=O)N[C@@H](CS)C(=O)N[C@@H](CCC(N)=O)C(=O)N[C@@H](CS)C(=O)N[C@@H](CC(C)C)C(=O)N[C@@H](CCCCN)C(=O)N[C@@H](CO)C(=O)N[C@@H](CS)C(=O)O` [γ61-76FuDEFL1-7] (H-GKCSHILRRCQCLKSC-OH; N-terminus and C-terminus assumed) yielded an IC50 [1] of over 300 µM.

In the case of `CSCC[C@H](NC(=O)[C@H](CC(=O)O)NC(=O)[C@@H](NC(=O)[C@H](Cc1ccc(O)cc1)NC(=O)[C@H](CS)NC(=O)[C@H](CO)NC(=O)CN)[C@@H](C)O)C(=O)N[C@H](C(=O)N[C@H](C(=O)N[C@@H](Cc1c[nH]cn1)C(=O)NCC(=O)N[C@@H](CC(N)=O)C(=O)N[C@@H](CCCNC(=N)N)C(=O)N[C@@H](CC(C)C)C(=O)N[C@@H](CCCCN)C(=O)N[C@@H](CS)C(=O)N1CCC[C@H]1C(=O)O)[C@@H](C)O)[C@@H](C)O` [γ88-104FuSN3] (H-GSCYTDMTTHGNRLKCP-OH; N-terminus and C-terminus assumed), the “IC50 against F. solani” value (F. solani VKM F-142) is reported as “inactive”, the IC50 (F. solani VKM F-142) is reported as over 300 µM and the IC50 [6] is reported as over 300 µM. For the same molecule, the “IC50 against P. savastanoi” value [7] was “failed to inhibit the growth”, the IC50 [7] was over 300 µM and the IC50 [1] was over 300 µM. The “IC50 against P. carotovorum” value [1] was “failed to inhibit the growth”, the IC50 [8] was over 300 µM and the “IC50 against C. michiganensis” value [8] was “failed to inhibit the growth”. The “IC50 against F. oxysporum” value (F. oxysporum VKM F-137) was “inactive”, the IC50 (F. oxysporum VKM F-137) was over 300 µM and the “IC50 against F. culmorum” value [9] was “inactive”. The IC50 [9] was over 300 µM and the “IC50 against F. verticillioides” value [11] was “very low activity”.

Work on `CC(C)C[C@H](NC(=O)CN)C(=O)N[C@@H](CS)C(=O)N[C@@H](CCCCN)C(=O)N[C@@H](Cc1ccc(O)cc1)C(=O)N[C@@H](CCCNC(=N)N)C(=O)N[C@@H](CS)C(=O)N[C@@H](CO)C(=O)N[C@@H](CC(C)C)C(=O)N[C@@H](Cc1c[nH]cn1)C(=O)N[C@@H](CO)C(=O)N[C@@H](CCCNC(=N)N)C(=O)N1CCC[C@H]1C(=O)N[C@@H](CC(N)=O)C(=O)N[C@H](C(=O)N[C@@H](CS)C(=O)N[C@@H](Cc1ccccc1)C(=O)N[C@@H](CCCNC(=N)N)C(=O)O)C(C)C` [γ89-106SlSN9, reference compound] (H-GLCKYRCSLHSRPNVCFR-OH) yielded an IC50 [2] of 6.3 ± 3.8 µM, an IC50 [3] of 118 ± 12 µM and an IC50 [4] of 93.6 ± 5.2 µM. It also gave an IC50 [5] of 3.3 ± 0.2 µM, an IC50 (F. solani VKM F-142) of 50.5 ± 1.4 µM and an IC50 [6] of 214 ± 47.1 µM. The IC50 [7] was 127.6 ± 0.9 µM, the IC50 [8] was 41.9 ± 0.5 µM and the IC50 (F. oxysporum VKM F-137) was 34.1 ± 1 µM. The IC50 [9] was 23.1 ± 4.5 µM, the IC50 [12] was 130 ± 2.9 µM and the IC50 [10] was 55.1 ± 7 µM. It also gave an IC50 (C. tropicalis VKM Y-2771) of 6.1 ± 0.1 µM and an IC50 [11] of 32.3 ± 6.5 µM.
